Entries after “also recorded” stand apart in the source; their conditions may differ. Like-named read-outs stand apart in the source and are kept apart here.
What was measured:
[1] = Intracellular fraction of unbound compound (fu,cell), dialysis of cell homogenate; format: in vitro ADME; conditions: freshly isolated human hepatocyte homogenate; geometrical mean ± S.E.M.; read-out: fu,cell hepatocytes
[2] = as above; conditions: human, mock-transfected HEK293 cell homogenate
[3] = as above; format: in vitro ADME; conditions: human; OATP1B1-transfected HEK293 cell homogenate; geometrical mean ± S.E.M.; read-out: Cell binding (fu,cell)
Method: For intracellular fraction of unbound compound experiments, cell lines or primary cells were suspended to a concentration of 10 × 10^6 cells/ml in Hank’s balanced salt solution (HBSS). Cell suspensions were homogenized for 10 s with a VCX-500 ultrasonic processor (Sonics & Materials) at 20% intensity and used immediately for binding experiments.
Binding to cell homogenates at steady-state was measured using dialysis as previously described. […] Briefly, the cell homogenate was spiked with six randomly-chosen compounds. Homogenates were dialyzed for 4 h using a Rapid Equilibrium Dialysis device (Thermo Fisher Scientific Inc.). At the end of the incubation, uniform sample matrices were obtained by addition of blank homogenate to samples from the buffer chamber, and by addition blank buffer to samples from the homogenate chamber. Dilutions of samples from the homogenate chambers (10-fold and 100-fold) were prepared. […] Compounds in the supernatant were analyzed by ultra-performance liquid chromatography coupled to tandem mass spectrometry (UPLC-MS/MS), as described below.
The fraction of compound that was not bound to cell homogenate (fu,hom) was calculated according to: […]
where PAbuffer is the peak area of compound in the buffer chamber and PAhom is the peak area of compound in the homogenate chamber, both corrected for the peak area of the internal standard in the respective chamber. For each compound, the dilution of the homogenate sample where PAhom was closest to PAbuffer was used.
The fraction of unbound compound in the cell (fu,cell) was calculated according to: […]

P-gp [4] = test: Intracellular compound accumulation (Kp) and intracellular bioavailability (Fic); conditions: dog, P-gp-KO (CRISPR) MDCK cells
[5] = as above; format: in vitro ADME; conditions: geometrical mean ± S.E.M.
Method: where Kp is the ratio Ccell/Cmedium.
Hepatocytes were isolated from human liver tissue obtained from two donors undergoing surgical resections at the Department of Surgery, Uppsala University Hospital. […] Isolation was performed using a two-step collagenase procedure, as previously described.
For the corresponding experiments in human hepatocytes, two cell culture configurations were used: freshly isolated cells in suspension, or cells cultivated as monolayers for 24 h. The freshly isolated cells were suspended directly after isolation at a concentration of 5 × 10^6 cells/ml in HBSS. The cell suspension (100 μl) was added to 96-well plates, which were immediately used for accumulation experiments. […] After cell attachment, medium was replaced by hepatocyte maintenance medium (Lonza) supplemented with insulin (10 μg/ml), transferrin (5.5 μg/ml), selenium (5 ng/ml), penicillin (100 units/ml), streptomycin (100 μg/ml), and dexamethasone (0.1 μM). Cells were kept in maintenance medium for 24 h, until the start of the intracellular compound accumulation experiments.

P-gp [6] = test: as above; conditions: dog, MDCK II wild-type cells
Method: (§1) To determine intracellular unbound compound concentrations, we measured intracellular fraction of unbound compound (fu,cell) in parallel with total intracellular compound accumulation (Ccell), as described below. Intracellular compound bioavailability (Fic) was calculated as the ratio between intracellular unbound compound concentration (Cu,cell = fu,cell∙Ccell) (the concentration available to bind intracellular targets) and the externally added compound concentration (Cmedium):
(§2) HEK293 cells were grown for two days in 24-well plates, as previously described[25]. MDCK cells were grown for two days in 96-well plates, prior to the intracellular compound accumulation experiments. The growth media were the same as described in the section ‘Cell line maintenance’ without addition of hygromycin B to avoid transporter inhibition.
(§3) Intracellular compound accumulation at steady-state was measured essentially as described before[25]. Briefly, cells were washed twice with HBSS and incubated for 45 min with solutions of single test compounds (in HBSS) on an orbital shaker (300 rpm) at 37 °C. At the end of the experiment, the remaining extracellular compound solutions were collected and cells were washed twice with ice-cold phosphate-buffered saline pH 7.4 (PBS). For hepatocytes in suspension, the cells were separated from the extracellular solutions by centrifugation (100 × g for 5 min). Compounds were extracted from the cells using acetonitrile/water (60:40) spiked with 50 nM warfarin (internal standard). Extracellular medium samples were diluted 10-fold with the same extraction solution. […] Protein concentrations were measured in representative wells of the plates using the BCA Protein Assay Reagent Kit (Thermo Fisher Scientific Inc.).
(§4) The ratio between total compound concentrations in the cells and in the medium (Kp) was calculated according to:
(§5) where Acell is the amount of compound in the cell samples, Vcell is the cell volume (6.5 μL/mg protein[80]), and Cmedium is the compound concentration in the medium sample.

P-gp [7] = test: as above; conditions: dog, P-gp-transfected MDCK cells
Method: as §1, §2, §3, §4, §5

[8] = as above; conditions: human, mock-transfected HEK293 cells
Method: as §1, §2, §3, §4, §5

in vitro [9] = conditions: dog
OATP1B1 [10] = test: Intracellular compound accumulation (Kp) and intracellular bioavailability (Fic); conditions: human, OATP1B1-transfected HEK293 cells
Method: as §1, §2, §3, §4, §5

[11] = Intracellular fraction of unbound compound (fu,cell), dialysis of cell homogenate; conditions: dog, homogenate of MDCK cells transfected with human P-gp
[12] = test system: P-gp-transfected MDCK cells; test: Intracellular compound accumulation (Kp) and intracellular bioavailability (Fic); conditions: 0.5 μM; ratio cP-gp-KO/P-gp-transfected
Method: as §1, §2, §3, §4, §5

P-gp [13] = test system: P-gp; set-up: method as in earlier work; conditions: dot = substrate; collated from literature ref 74, 75, 76; cited from earlier work
[14] = test system: primary human hepatocytes; test: Metabolic clearance (CLint) in primary human hepatocytes; format: in vitro ADME; conditions: 1 μM; freshly isolated human hepatocytes in suspension vs after 24 h in monolayer
Method: Metabolic clearance (CLint) was determined, as previously described. […] At time points 0, 10, 30, and 60 min, the reaction was stopped by addition of acetonitrile (200 μl) spiked with 50 nM warfarin (internal standard). […] CLint was calculated as the product of the compound disappearance rate and incubation volume, normalized by the cell number.

OATP1B1 [15] = conditions: dot = substrate; collated from literature ref 74, 75, 76; cited from earlier work
[16] = set-up: method as in PMID 19785645; conditions: human subjects; co-administration of cyclosporine A ref 58; cited from earlier work
[17] = test system: P-gp-KO (CRISPR) MDCK cells; conditions: dog
Method: as §1, §2, §3, §4, §5

[18] = test system: P-gp-transfected MDCK cells (+ elacridar); conditions: dog, MDCK-MDR1
[19] = test system: P-gp-transfected MDCK cells; conditions: dog
Method: as §1, §2, §3, §4, §5

[20] = test system: OATP1B1-transfected HEK293 cells; conditions: human
Method: as §1, §2, §3, §4, §5

P-gp [21] = test: in vitro; conditions: dog
Method: as §1, §2, §3, §4, §5

[22] = test system: mock-transfected HEK293 cells; conditions: human
Method: as §1, §2, §3, §4, §5

in vitro [23] = conditions: human
MDCK II wild-type cells = conditions: dog
Method: as §1, §2, §3, §4, §5

Compound | fraction unbound at 4 h [1] | fraction unbound at 4 h [2] | fraction unbound at 4 h [3] | Kp at 45 min, 0.5 μM (P-gp [4]) | Kp at 45 min (P-gp [6]) | Kp at 45 min, 0.5 μM (P-gp [7]) | Kp at 45 min, 0.1 μM [8] | fraction unbound (in vitro [9]) | Kp at 45 min, 0.1 μM (OATP1B1 [10]) | fraction unbound at 4 h [11] | P-gp substrate (P-gp [13]) | OATP1B1 substrate (OATP1B1 [15]) | increase of AUC by cyclosporine A [16] | other results
COc1ccc(CCN2CCC(Nc3nc4ccccc4n3Cc3ccc(F)cc3)CC2)cc1 [Astemizole] | 0.00036 ± 0.00012 | 0.0018 ± 0.0006 | 0.0013 ± 0.0004 | 2010 ± 200 | 1680 ± 71 | 995 ± 94 | 821 ± 253 | 1e-05 ± 2e-05 | 738 ± 576 |  |  |  |  | Kp at 45 min ([5]; freshly isolated human hepatocytes in suspension): 1990 ± 1090; Kp at 24 h ([5]; human hepatocytes cultured for 24 h in monolayer format, Monolayer hepatocytes (human, 24 h culture)): 1600 ± 308
Cc1c(O)cccc1C(=O)N[C@@H](CSc1ccccc1)[C@H](O)CN1C[C@H]2CCCC[C@H]2C[C@H]1C(=O)NC(C)(C)C [Nelfinavir] |  | 0.00039 ± 8e-05 | 0.00044 ± 0.0001 | 1080 ± 50 | 494 ± 74 | 53 ± 19 | 337 ± 113 |  | 652 ± 228 | 0.0001 ± 4e-05 | ● |  |  | Fic fold lower in P-gp-transfected than in cP-gp-KO MDCK cells [12]: 20 fold
CC(C)c1nc(CN(C)C(=O)N[C@H](C(=O)N[C@@H](Cc2ccccc2)C[C@H](O)[C@H](Cc2ccccc2)NC(=O)OCc2cncs2)C(C)C)cs1 [Ritonavir] |  |  |  |  |  |  |  |  |  |  | ● |  |  | metabolic clearance (CLint), suspension vs monolayer hepatocytes [14]: higher rates; also recorded: reduced
O=C(O)C[C@H](O)C[C@H](O)/C=C/c1c(C2CC2)nc2ccccc2c1-c1ccc(F)cc1 [Pitavastatin] | 0.017 ± 0.011 | 0.023 ± 0.005 | 0.025 ± 0.006 | 13 ± 1 | 11 | 11 ± 2 | 4.2 ± 0.3 |  | 35 ± 3 | 0.023 ± 0.005 | ● | ● | 5- to 15 fold | 
CN(C)C(=O)C(CCN1CCC(O)(c2ccc(Cl)cc2)CC1)(c1ccccc1)c1ccccc1 [Loperamide] |  |  |  |  |  |  |  | 0.00051 ± 0.00051 |  |  | ● |  |  | intracellular bioavailability (Fic) [17]: 0.34±0.35; intracellular bioavailability (Fic) [18]: 0.33±0.33; intracellular bioavailability (Fic) [19]: 0.13±0.13; intracellular bioavailability (Fic) [20]: 6.8±1.8; Kp (P-gp [21]): 987 ± 198; intracellular bioavailability (Fic) [22]: 4.3±1.7; fraction unbound (in vitro [23]): 0.0078 ± 0.0008; intracellular bioavailability (Fic) (MDCK II wild-type cells): 0.50±0.51
CC(C)n1c(/C=C/C(O)CC(O)CC(=O)O)c(-c2ccc(F)cc2)c2ccccc21 (centres unmarked) [Fluvastatin] |  | 0.017 ± 0.003 | 0.015 ± 0.001 | 53 ± 4 | 35 ± 5 | 21 ± 2 | 45 ± 6 |  | 94 ± 12 | 0.0099 ± 0.0026 | ● | ● | 3- to 4 fold | 
